A short description of data set [1]: Release of model drugs from 4% (w/v) alginate pieces. The format is physicochemical. Particulars: 4% (w/v) alginate pieces 8 mm diameter, 2 mm thick, cross-linked 15 minutes. The protocol:
Drug release was recorded for 4% (w/v) alginate pieces 8 mm in diameter and 2 mm in thickness that were cross-linked for 15 minutes. […] (Sample size of study n=3 per time point).

Data set [2] in a line: Substance P release from alginate bandage sheets in PBS, measured by ELISA. The format is physicochemical. The note with it: 2% (w/v) and 4% (w/v) bandaging sheets; 8 mm diameter, 2 mm thick sample in 2 mls PBS. The protocol:
The release was performed by placing the bandage sample of 8 mm diameter and 2 mm thickness in 2 mls of PBS and moving it to a new solution at defined time intervals. The release was examined using a commercially available ELISA assay. […] The sheets incorporate either 32 μg or 64 μg of Substance P with a given processing loss (Sample size n=3 per time point). Small molecule compounds (less than 1000 daltons) are typically added to the composition in a volume of 250 μl for a dressing that is about 12 mm in diameter and 2 mm thick. Thus, substance P was added at 128 μg/ml at the low concentration and 256 μg/ml at the higher concentration. Actual clinical doses are the same or similar. Since small molecules may diffuse out of the dressing quickly, it is advantageous for small molecules to have an affinity for the alginate, e.g., since alginate is negatively charged, positively charged small molecule drugs elute at a clinically acceptable and beneficial rate (and consistent with standard practice for changing of wound dressings). For example, substance P is slightly positively charged and is therefore attracted to the alginate. Charge is less or not relevant for larger molecules, e.g., BSA. Generally, the dose is determined based on the therapeutic dose of the drug. For example, VEGF is administered to the dressing at about 50 μg/ml (3 μg in 60 μl of liquid).
Background: ELISA stands for enzyme-linked immunosorbent assay.

Entries after “also recorded” stand apart in the source; their conditions may differ.

For `O=C1c2c(O)ccc(O)c2C(=O)c2c(NCCNCCO)ccc(NCCNCCO)c21` [mitoxantrone, Mitoxantrone], the “release profile from the alginate dressing material” value in data set [1] is given as “sustained release from the scaffold, which is still ongoing at the termination of the experiment”.
“Arg-Pro-Lys-Pro-Gln-Gln-Phe-Phe-Gly-Leu-Met [Substance P]”: the “duration of sustained release of the peptide from the bandage” value in data set [2] was “at least 3 days”.
For `Cc1cc(-c2ccc(/N=N/c3c(S(=O)(=O)O)cc4cc(S(=O)(=O)O)cc(N)c4c3O)c(C)c2)ccc1/N=N/c1c(S(=O)(=O)O)cc2cc(S(=O)(=O)O)cc(N)c2c1O` [trypan blue dye, Trypan blue], in data set [1], the “loss during wetting step” value came to 24% and the “release profile from the alginate dressing material” value is “lost very rapidly; also recorded: the majority within one day”.
